Reference: patent publication US11415513B2, “Method for determining the degree of sensitivity of a strain of fungus to an antifungal agent” (UNIVERSITE GRENOBLE ALPES, priority 2015, dated 2022)
≈ marks a conversion by molar mass, not a printed value.

What was measured:
[1] = system: strain DSY296 of C. albicans; assay: Etest method (MIC); format: cell-based, Candida albicans; details: RPMI medium plates, 24 h at 35° C.; for MIC: Candida albicans
Method: (§1) The Etest® method is a commercial test for determining the sensitivity of a strain, most frequently used routinely in clinical mycology laboratories.
(§2) The Etest® tests were performed according to the manufacturer's instructions. After distributing a standardised Mac Farland 0.5 inoculum (equivalent of […]) over plates of RPMI medium, said plates were incubated for 24 h at 35° C., with the exception of C. glabrata in which case the incubation was extended to 48 h so as to be able to determine the minimum inhibitory concentration (MIC).
(§3) The results of the MICs obtained were interpreted in accordance with the tables of the CLSI (Clinical and Laboratory Standards Institute) and/or of EUCAST (European Committee on Antimicrobial Susceptibility Testing) (Arendrup M C, Cuenca-Estrella M, Lass-Flörl C, Hope W W (2014) Breakpoints for antifungal agents: an update from EUCAST focussing on echinocandins against Candida spp and triazoles against Aspergillus spp. Drug Resist Updat 16(6):81-95. doi:10.1016/j.drup.2014.01.001) (cf. Table 2 taken from Maubon D, Garnaud C, Calandra T, et al. (2014) Resistance of Candida spp. to antifungal drugs in the ICU: where are we now? Intensive Care Med. doi: 10.1007/s00134-014-3404-7) which list the clinical thresholds (CBPs) for the most common species of yeast of the genus Candida as a function of different antifungal agents, or according to the table of epidemiological thresholds (ECVs).

[2] = system: strain GRE32 of C. krusei; assay: Etest method (MIC); format: cell-based, Candida krusei; details: RPMI medium plates, 24 h at 35° C.; for MIC: Pichia kudriavzevii; for phenotype by Etest MIC, interpretation by the EUCAST or CLSI table: fluconazole interpreted by extrapolation of the EUCAST and CLSI data for C. glabrata
Method: as §1, §2, §3

[3] = system: strain ATCC®6258 of C. krusei; assay: Etest method (MIC); format: cell-based, Candida krusei; details: RPMI medium plates, 24 h at 35° C.; for MIC: Pichia kudriavzevii, ATCC6258; for phenotype by Etest MIC, interpretation by the EUCAST or CLSI table: fluconazole interpreted by extrapolation of the EUCAST and CLSI data for C. glabrata
Method: as §1, §2, §3

[4] = system: strain ATCC®6258 of C. krusei; assay: Sensitivity test by HCA microscopy (chitin level, Calcofluor White; cell count); format: cell-based, Candida krusei
Method: The strains of Candida were incubated beforehand at 30° C. overnight in a yeast extract medium—peptone dextrose (YPD) (1% bacto peptone, 0.5% yeast extract, 2% glucose, 1.5% agar).
Yeast colonies were then removed from YPD medium plates and suspended in a 0.9% NaCl saline solution, in which the cell concentration was estimated by optical microscopy using Kova counting slides.
A dilution was performed to obtain 15 ml of an inoculum at 3×10^6 CFU/ml, in a synthetic complete (SC) medium at pH 7 (2% glucose, 0.5% ammonium sulfate, 0.17% nitrogen-containing yeast base, 0.2% synthetic complete mixture, and 10% HEPES 1.5M pH 7.2) for C. albicans, C. parapsilosis, C. tropicalis and C. krusei, and in a solution of RPMI 1640 pH 7.3 (10% HEPES 1M pH 7.2) for C. glabrata, so as to reduce the formation of septa and clusters.
1 ml of inoculum was then added to 2 ml of antifungal solution prepared in an SC or RPMI medium depending on the species of fungus, so as to obtain a final concentration of yeast of 10^6 CFU/ml and the desired concentration of antifungal agent according to table 1.
After homogenisation, the cultures were placed at 30° C. at 200 rpm, with the exception of cultures of C. glabrata, which were placed at 35° C. at 200 rpm, and incubated for a period of 6.5 h or 24 h.
After incubation, 100 μl of the culture of fungi obtained above were transferred in triplicate to 96-well plates, and 2.5 μl of Calcofluor White (CFW) were added to each well so as to mark the chitin of the cell walls of the yeasts.
A step of acquiring images by automated fluorescence microscopy (ScanR screening station, Olympus), using a 40× lens and a CFW filter, made it possible to obtain 30 images per well so as to capture enough cells to provide statistically significant data. These images were analysed by software (ScanR analysis software, Olympus). Firstly, the background noise was processed so as to improve the contrast between the fluorescence of the yeasts and background noise. A pixel threshold was then defined. Segmentation of the fluorescent elements present in each of the acquired images was then performed using an algorithm predefined in the software, making it possible to determine the limit of each element on the basis of the fluorescence intensity of said element. A size parameter was then applied to select the yeasts and eliminate the aggregates and the fluorescent debris.
Each element then corresponding to a yeast, it was thus possible, on the basis of these elements predefined beforehand, to define the fluorescence intensity for each of the yeasts, this intensity being directly correlated with the chitin content of their wall.
On the basis of said defined elements, it was also possible to automatically count the yeasts,
The strain ATCC®6258 of C. krusei was cultivated as described in paragraph I of the Examples section so as to obtain an inoculum at 3×10^6 CFU/ml in 15 ml of SC medium.
2 ml of fluconazole solution prepared in the SC medium were then added to 1 ml of this inoculum so as to obtain a final concentration of yeast of 10^6 CFU/ml and of 128 μg/ml in fluconazole. […]
The chitin level in the cell wall of the yeasts was then measured by […] analysis (HCA) microscopy, as described in paragraph II of the Examples section, in triplicate for each condition of concentration of fluconazole and without fluconazole. […]

| Structure (SMILES) | MIC [1] | phenotype by Etest MIC, interpretation by the EUCAST and CLSI tables [1] | MIC [2] | phenotype by Etest MIC, interpretation by the EUCAST or CLSI table [2] | MIC [3] | phenotype by Etest MIC, interpretation by the EUCAST or CLSI table [3] | phenotype of the strain with respect to the antifungal agent (HCA) ([4]; 6.5 h at 30° C., SC medium) | increase in the chitin level in the wall of the cells ([4]; vs cells in the absence of antifungal agent, 6.5 h at 30° C., SC medium, concentration gradient of Table 1) | phenotype of the strain with respect to the antifungal agent (HCA) ([4]; 24 h at 30° C., RPMI medium) | decrease of the number of cells ([4]; vs cells in the absence of antifungal agent, 24 h at 30° C., RPMI medium) | increase of the chitin level in the wall of the cells ([4]; vs cells in the absence of antifungal agent, 24 h at 30° C., RPMI medium, concentration gradient of Table 1) |
| --- | --- | --- | --- | --- | --- | --- | --- | --- | --- | --- | --- |
| OC(Cn1cncn1)(Cn1cncn1)c1ccc(F)cc1F [fluconazole] | 96 µg/mL (≈ 313 µM) | resistant | 64 µg/mL (≈ 209 µM) | resistant | 64 µg/mL (≈ 209 µM) | resistant | resistant (an increase in the chitin level having a value less than 10% or a decrease in the chitin level of less than 20% or an unchanged chitin level) | less than 10% |  |  |  |
| C[C@@H](c1ncncc1F)[C@](O)(Cn1cncn1)c1ccc(F)cc1F [voriconazole] | 1 µg/mL (≈ 2.86 µM) | resistant | 1 µg/mL (≈ 2.86 µM) | intermediate | 1 µg/mL (≈ 2.86 µM) | intermediate |  |  | intermediate (an increase in the chitin level having a value of from 10% to a value less than 20%) | less than 0.3 log | greater than or equal to 20% |
